Activity calls are given as the source filed them. How the calls were made is not given here.

The values that follow come from PubChem BioAssay AID1259408 (Genetic Toxicology Data Bank (GENE-TOX), 2018).

The data set concerns GENE-TOX genotoxicity assays, various organisms and cells. Description: GENE-TOX mutagenicity studies. The settings on record: for call: Assay Type: In vivo carcinogenicity studies.
Setting [1] is: Species/Cell Type: Chinese hamster lung (V79) cells, Assay Type: Forward gene mutation at the HPRT or ouabain locus, Assay Code: V79-, Evaluation Type: Evaluation A (Pre-1980).
Setting [2] is: Species/Cell Type: Escherichia coli polA (W3119 vs P3478), Assay Type: Rec-assay, DNA effects (bacterial DNA repair), Assay Code: RE1+, Evaluation Type: Evaluation A (Pre-1980).
Setting [3] is: Species/Cell Type: Nonhuman, Assay Code: CCG+L, Evaluation Type: Evaluation A (Pre-1980).
Setting [4] is: Species/Cell Type: Drosophila melanogaster, Assay Type: Sex-linked recessive lethal gene mutation, Assay Code: SRL+, Evaluation Type: Evaluation A (Pre-1980).
Where [5] appears, read: Species/Cell Type: Nonhuman, Assay Code: CCG+, Evaluation Type: Evaluation A (Pre-1980).
Setting [6] is: Species/Cell Type: Salmonella typhimurium (one or more of the five standard strains: TA98, TA100, TA1535, TA1537, and TA1538), Assay Type: Histidine reverse gene mutation, Ames assay, Assay Code: SAL+*, Activation: With metabolic activation, Evaluation Type: Evaluation A (Pre-1980).
The mark [7] stands for this setting: Species/Cell Type: Salmonella typhimurium (one or more of the five standard strains: TA98, TA100, TA1535, TA1537, and TA1538), Assay Type: Histidine reverse gene mutation, Ames assay, Assay Code: SAL+, Evaluation Type: Evaluation A (Pre-1980).
Where [8] appears, read: Species/Cell Type: Syrian hamster embryo (SHE) cells, Assay Type: Cell transformation, clonal assay, Assay Code: CTC+, Evaluation Type: Evaluation A (Pre-1980).
Where [9] appears, read: Species/Cell Type: Fischer rat embryo (RLV/1706) cells, Assay Type: Cell transformation, viral enhanced, Assay Code: CTR+, Evaluation Type: Evaluation A (Pre-1980).
[10] abbreviates: Species/Cell Type: Human lymphocytes, Assay Type: Sister-chromatid exchange (SCE) in vitro, Assay Code: SCL+, Evaluation Type: Evaluation B (Post-1980).
[11] abbreviates: Species/Cell Type: Human, Assay Type: Sister-chromatid exchange (SCE) in vitro, Assay Code: SC1+, Evaluation Type: Evaluation B (Post-1980).

For the compound `Cc1ccc2cc3c(cc(-c4ccccc4O)c4ccccc43)c3c2c1CC3`, the mutagenic call under setting [1] was “inactive; negative”.

In the case of `O=[N+]([O-])c1ccc(F)c([N+](=O)[O-])c1`, the mutagenic call is “active; positive” under setting [2]; “inactive; negative” (Species/Cell Type: Nonhuman, Assay Type: Sister-chromatid exchange (SCE) in vitro, Assay Code: SC2-, Evaluation Type: Evaluation B (Post-1980)); “active; positive” (Species/Cell Type: Saccharomyces cerevisiae, Assay Type: Forward gene mutation, Assay Code: YEF+, Evaluation Type: Evaluation A (Pre-1980)); “active; positive” (Species/Cell Type: Saccharomyces cerevisiae, Assay Type: Mitotic recombination or gene conversion, Assay Code: YEC+, Evaluation Type: Evaluation A (Pre-1980)); “active; positive” (Species/Cell Type: Saccharomyces cerevisiae, Assay Type: Mitotic recombination or gene conversion, Assay Code: YEH+, Evaluation Type: Evaluation A (Pre-1980)).

Regarding `CC1=C2CCc3c2c(cc2c3ccc3ccccc32)C(O)C1O` (stereo unspecified), the mutagenic call under setting [1] was “inactive; negative”. In addition, under setting [3], the call was “active; positive”.

On to `Cc1ccc2ccc3c(C)c4ccccc4c4ccc1c2c34`, for which the mutagenic call (Species/Cell Type: Drosophila melanogaster, Assay Type: Sex-linked recessive lethal gene mutation, Assay Code: SRLT, Evaluation Type: Evaluation A (Pre-1980)) was “no conclusion”.

As to `COc1ccc(N)cc1N`, the mutagenic call reads like this: under setting [4], “active; positive”; (Species/Cell Type: Mammalian polychromatic erythrocytes, Assay Type: Micronucleus test, chromosome aberrations, Assay Code: MNTT, Evaluation Type: Evaluation A (Pre-1980)) “no conclusion”; (Species/Cell Type: Mouse, Sex: Male, Assay Type: Sperm morphology, Assay Code: SPI-, Evaluation Type: Evaluation A (Pre-1980)) “inactive; negative”; (Species/Cell Type: Neurospora crassa, Assay Type: Aneuploidy, chromosome aberrations, Assay Code: NEN+, Evaluation Type: Evaluation A (Pre-1980)) “active; positive”; (Species/Cell Type: Nonhuman, Assay Type: Sister-chromatid exchange (SCE) in vivo, Assay Code: SC3+, Evaluation Type: Evaluation B (Post-1980)) “active; positive”; (Species/Cell Type: Rodents, Sex: Male, Assay Type: Dominant lethal test, Assay Code: DLT-, Evaluation Type: Evaluation A (Pre-1980)) “inactive; negative”. For the same compound, the mutagenic call under setting [6] is “active; positive”. For the same compound, under setting [5], the call is “active; positive”.

As to `O=C(O)c1ccc2ccccc2n1`, the mutagenic call (Species/Cell Type: Salmonella typhimurium (one or more of the five standard strains: TA98, TA100, TA1535, TA1537, and TA1538), Assay Type: Histidine reverse gene mutation, Ames assay, Assay Code: SALT, Evaluation Type: Evaluation A (Pre-1980)) is recorded as “no conclusion”.

Turning to `O=C1c2ccccc2C(=O)c2c(NCCNCCO)ccc(O)c21`, where the note is “Species/Cell Type: Nonhuman, Assay Type: Sister-chromatid exchange (SCE) in vitro, Assay Code: SC2+, Evaluation Type: Evaluation B (Post-1980)”, the mutagenic call was “active; positive”.

Consider `CN(C#N)N=O`, for which the mutagenic call (Species/Cell Type: Nonhuman, Assay Type: Chromosome aberrations in vitro, Assay Code: CY&+, Evaluation Type: Evaluation A (Pre-1980)) is “active; positive”; the mutagenic call under setting [7] was “active; positive”; the mutagenic call under setting [8] is “active; positive”.

As for `C[C@H](CCC(=O)O)[C@H]1CC[C@H]2[C@@H]3CC[C@@H]4C[C@H](O)CC[C@]4(C)[C@H]3CC[C@]12C`, the mutagenic call is “active; positive” under setting [9] and “no conclusion” (Species/Cell Type: Syrian hamster embryo (SHE) cells, Assay Type: Cell transformation, clonal assay, Assay Code: CTCT, Evaluation Type: Evaluation A (Pre-1980)).

Consider `C1COCCO1`, for which the call under setting [5] is “active; positive”. Moreover, the mutagenic call (Species/Cell Type: Syrian hamster embryo (SA7/SHE) cells, Assay Type: Cell transformation, viral enhanced, Assay Code: CT7-, Evaluation Type: Evaluation A (Pre-1980)) was “inactive; negative”.

For `Oc1ccc2cc3ccc4cccc5ccc(c2c1)c3c45`, the mutagenic call runs as follows: (Species/Cell Type: Chinese hamster lung (V79) cells, Assay Type: Forward gene mutation at the HPRT or ouabain locus, Assay Code: V79+/-*, Activation: With metabolic activation, Evaluation Type: Evaluation A (Pre-1980)) “inactive; positive without activation, negative with activation”; under setting [6], “active; positive”. Besides, under “Species/Cell Type: Nonhuman, Assay Code: CCGT, Evaluation Type: Evaluation A (Pre-1980)”, the call was “no conclusion”.

Take `Nc1ncn([C@@H]2O[C@H](CO)[C@@H](O)[C@H]2O)c(=O)n1`: the mutagenic call is “active; positive” under setting [10]; “active; positive” under setting [11]; “active; positive” (Species/Cell Type: Mouse (C3H/10T1/2) cells, Assay Type: Cell transformation, Assay Code: CTH+, Evaluation Type: Evaluation A (Pre-1980)); “active; positive” (Species/Cell Type: Nonhuman, Assay Type: Sister-chromatid exchange (SCE) in vitro, Assay Code: SC2+D, Dose Response: With dose response, Evaluation Type: Evaluation B (Post-1980)). Further, the call under setting [3] was “active; positive”.

With `O[C@@H]1[C@@H](O)c2c(cc3ccc4cccc5ccc2c3c45)C2O[C@@H]21` (stereo partly specified), the mutagenic call under setting [7] was “active; positive”.

`CNNCc1ccc(C(=O)NC(C)C)cc1`: the mutagenic call reads like this: (Species/Cell Type: Drosophila melanogaster, Assay Type: Aneuploidy, partial sex chromosome loss, chromosome aberrations, Assay Code: DAP-M, Evaluation Type: Evaluation A (Pre-1980)) “inactive; negative”; (Species/Cell Type: Drosophila melanogaster, Assay Type: Aneuploidy, whole sex chromosome loss, chromosome aberrations, Assay Code: DAC+M, Evaluation Type: Evaluation A (Pre-1980)) “active; positive”; under setting [4], “active; positive”; (Species/Cell Type: Drosophila melanogaster, Sex: Male, Assay Type: Heritable translocation test, chromosome aberrations, Assay Code: DHT-, Evaluation Type: Evaluation A (Pre-1980)) “inactive; negative”; under setting [2], “active; positive”; under setting [9], “active; positive”. Besides, the mutagenic call was “active; positive” under setting [10]; “active; positive” under setting [11]; “active; positive” (Species/Cell Type: Mammalian polychromatic erythrocytes, Assay Type: Micronucleus test, chromosome aberrations, Assay Code: MNT+, Evaluation Type: Evaluation A (Pre-1980)); “inactive; negative” (Species/Cell Type: Mouse (BALB/c-3T3) cells, Assay Type: Cell transformation, Assay Code: CTB-, Evaluation Type: Evaluation A (Pre-1980)); “active; positive” (Species/Cell Type: Mouse lymphoma (L5178Y) cells, Assay Type: Forward gene mutation at the thymidine kinase (TK) locus, chromosome aberrations, Assay Code: L51+, Evaluation Type: Evaluation A (Pre-1980)); “active; positive” (Species/Cell Type: Mouse, Sex: Female, Assay Type: Spot test, gene mutation, Assay Code: MST+, Evaluation Type: Evaluation A (Pre-1980)). Besides, the mutagenic call is “active; positive” (Species/Cell Type: Mouse, Sex: Male, Assay Type: Heritable translocation test, chromosome aberrations, Assay Code: HTT+, Evaluation Type: Evaluation A (Pre-1980)); “active; positive” (Species/Cell Type: Mouse, Sex: Male, Assay Type: Specific locus test, gene mutation, Assay Code: SLT+, Evaluation Type: Evaluation A (Pre-1980)); “active; positive” (Species/Cell Type: Mouse, Sex: Male, Assay Type: Sperm morphology, Assay Code: SPI+, Evaluation Type: Evaluation A (Pre-1980)); “active; positive” (Species/Cell Type: Neurospora crassa, Assay Type: Forward gene mutation, Assay Code: NEF+, Evaluation Type: Evaluation A (Pre-1980)); “active; positive” (Species/Cell Type: Nonhuman, Assay Type: Sister-chromatid exchange (SCE) in vivo, Assay Code: SC3+D, Dose Response: With dose response, Evaluation Type: Evaluation A (Pre-1980)); “active; positive” (Species/Cell Type: Rabbit, Sex: Male, Assay Type: Sperm morphology, Assay Code: SPR+, Evaluation Type: Evaluation A (Pre-1980)). The mutagenic call was “active; positive” (Species/Cell Type: Rodents, Sex: Male, Assay Type: Dominant lethal test, Assay Code: DLT+, Evaluation Type: Evaluation A (Pre-1980)); “inactive; positive without activation, negative with activation” (Species/Cell Type: Saccharomyces cerevisiae, Assay Type: Mitotic recombination or gene conversion, Assay Code: YEC+/-*, Activation: With metabolic activation, Evaluation Type: Evaluation A (Pre-1980)); “inactive; positive without activation, negative with activation” (Species/Cell Type: Saccharomyces cerevisiae, Assay Type: Mitotic recombination or gene conversion, Assay Code: YEH+/-*, Activation: With metabolic activation, Evaluation Type: Evaluation A (Pre-1980)); “inactive; positive without activation, negative with activation” (Species/Cell Type: Saccharomyces cerevisiae, Assay Type: Reverse gene mutation, Assay Code: YER+/-*, Activation: With metabolic activation, Evaluation Type: Evaluation A (Pre-1980)); “inactive; negative” (Species/Cell Type: Salmonella typhimurium (one or more of the five standard strains: TA98, TA100, TA1535, TA1537, and TA1538), Assay Type: Histidine reverse gene mutation, Ames assay, Assay Code: SAL-, Evaluation Type: Evaluation A (Pre-1980)); “active; positive” (Species/Cell Type: Salmonella typhimurium, Assay Type: Forward and reverse gene mutation, host-mediated assay, Assay Code: HMA+, Evaluation Type: Evaluation A (Pre-1980)). Under setting [8], the mutagenic call was “active; positive”. Besides, under setting [5], the call is “active; positive”.
